{
  "source": "patent US20260027100A1",
  "about": "“THERAPEUTIC TYROSINE KINASE INHIBITORS FOR MYELIN OLIGODENDROCYTE GLYCOPROTEIN ANTIBODY DISEASE (MOGAD)” (Principia Biopharma Inc., priority 2022, published 2026)",
  "assay_type_in_all_cases": "in vivo, human",
  "key": {"[1]": {"test_system": "participants with relapsing multiple sclerosis", "experiment": "Phase 2b dose-finding trial (DRI15928): safety (TEAEs, AESIs, PCSAs)", "conditions": "Phase 2b trial", "protocol": "(§1) The choice of the dose of 60 mg of the BTK inhibitor taken with food is based on the results of a Phase 2b dose-finding trial for tolebrutinib in participants with relapsing multiple sclerosis (DRI15928). See for example, Reich, D. S., et al., Safety and efficacy of tolebrutinib, an oral brain-penetrant BTK inhibitor, in relapsing multiple sclerosis: a phase 2b, randomised, double-blind, placebo-controlled trial. Lancet Neurol, 2021. 20(9): p. 729-738.\nThere were low numbers of AESIs and PCSAs observed.\n(§2) The choice of the dose of 60 mg tolebrutinib taken with food is based on the results of the Phase 2b dose-finding trial for tolebrutinib in adult participants with relapsing multiple sclerosis (DRI15928)."}, "[2]": {"experiment": "Ongoing tolebrutinib Phase 3 trials: hepatic safety", "conditions": "ongoing Phase 3 trials", "excerpt": "Thus, there is a need to mitigate the risk of hepatic injury and provide safe treatment for patients with MOGAD."}, "[3]": {"test_system": "participants with relapsing multiple sclerosis", "experiment": "Phase 2b dose-finding trial (DRI15928): treatment response versus exposure, new gadolinium-enhancing T1-hyperintense lesions", "conditions": "after 12 weeks of treatment", "protocol": "as §1, §2"}, "[4]": {"experiment": "Phase 2b dose-finding trial (DRI15928): PK data and effect of fed status on tolebrutinib exposure", "conditions": "effect of fed status on exposure; Phase 2b trial in relapsing multiple sclerosis", "protocol": "as §1, §2"}},
  "data": [
    {"smiles": "C=CC(=O)N1CCC[C@@H](n2c(=O)n(-c3ccc(Oc4ccccc4)cc3)c3c(N)nccc32)C1", "note": "[tolebrutinib, (R)-1-(1-acryloylpiperidin-3-yl)-4-amino-3-(4-phenoxyphenyl)-1H-imidazo[4,5-c]pyridin-2(3H)-one]", "values": [
      {"measurement": "numbers of AESIs and PCSAs observed", "setting": "[1]", "result": "low numbers"},
      {"measurement": "new risks identified", "setting": "[1]; overall", "result": "no new risks were identified"},
      {"measurement": "correlation between dose administered and number of TEAEs", "setting": "[1]; tolebrutinib treatment arms", "result": "no correlation"},
      {"measurement": "most common events (preferred terms)", "setting": "[1]; tolebrutinib treatment arms", "result": "headache, upper respiratory tract infection, and nasopharyngitis"},
      {"measurement": "drug-induced liver injury", "setting": "[2]", "result": "Drug-induced liver injury has been identified"},
      {"measurement": "time of occurrence of reported liver injury events after start of administration", "setting": "[2]", "result": "2 to 3", "unit": "months"},
      {"measurement": "course of liver enzyme elevation after discontinuation", "setting": "[2]; after tolebrutinib discontinuation", "result": "appears reversible"},
      {"measurement": "correlation between treatment response and exposure (new gadolinium-enhancing T1-hyperintense lesions)", "setting": "[3]", "result": "higher exposure was associated with low numbers of new gadolinium-enhancing T1-hyperintense lesions"},
      {"measurement": "increase in AUC0-24 (positive food effect)", "setting": "[4]", "result": "approximately 2 fold"}
    ]}
  ]
}
